Assay results taken from patent US20170087188A1, “WNT INDUCED MOTILITY AND ENHANCED ENGRAFTMENT OF CELLS” (OTTAWA HOSPITAL RESEARCH INSTITUTE, priority 2014, published 2017).
“Also recorded” adds a separate entry of the source.

System: mouse primary myoblasts
Experiment: Scratch migration assay, mouse primary myoblasts
Assay type: cell-based
Conditions: primary myoblasts; MDC at 50 μm
Description: Cellular polarization is indicative of increased motility (de Forges et al., 2012). Scratch assays were used to test whether Wnt7a and Fzd7 polarization affect cell motility. To exclude effects on the localization of cells arising from altered rates of proliferation, cells were treated with Mitomycin-C.
Fzd7 deficient cells migrated 59% less compared to heterozygous myoblasts and expression of Fzd7-Flag in Fzd7 knockout myoblasts restored migration to normal levels (FIG. 2D). […] To investigate whether the stimulation of myoblast migration is dose dependent, different concentrations of Wnt7a and Wnt3a were tested for their effect on migration.
Following plasmid transfection or application of Wnts (R&D Systems), the cells were treated with Mitomycin-C for 2 h (50 μg/mL). Subsequently, the monolayer of cells was scraped in a straight line. The plates were then extensively washed with culture medium and incubated for 24 h before analysis. Analysis was performed using DAPI staining after matching the reference points and enumeration of DAPI-stained nuclei in the scar was performed. Unless otherwise indicated, Wnt7a and Wnt3a were used at a concentration of 100 ng/mL in scratch assays. Monodansylcadaverine (MDC, 30432, Sigma) was used in scratch assays at a concentration of 50 μm.

For `CN(C)c1cccc2c(S(=O)(=O)NCCCCCN)cccc12` [monodansylcadaverine, reference compound], the “effect on Wnt7a mediated migration in scratch assays” value was “prevents Wnt7a induced migration; also recorded: prevented Wnt7a mediated migration”.
